Like-named read-outs stand apart in the source and are kept apart here.
Experiments:
B cell = B cell diff. (Table 4, method not given); assay type: cell-based
[1] = tested on: A549 (human lung carcinoma cell line); assay: Glo assay of A549 cells (Table 3; ProteasomeGlo plating scheme); assay type: cell-based
In short: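 Cells plated in 384 wells; compound, DMSO, staurosporine transferred by ECHO; 105 min, 37° C., 5% CO2; Proteasome-Glo (Suc-LLVY-Glo) reagent added; dark 10-15 min; luminescence; IC50 nM.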

[2] = molecular target: T1, β5 subunit of the human immunoproteasome (IPS) (Homo sapiens, UniProt P28062); assay: β5 inhibition assay, human immunoproteasome (Suc-LLVY-AMC); assay type: biochemical; conditions: IC50 class, Suc-LLVY-AMC substrate
T1 construct: purchased Boston Biochem E-370
In short: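 Human immunoproteasome (1 nM final) was preincubated 10 min at RT with compound in 100 mM HEPES pH 7.5, 50 mM NaCl, 0.02% SDS, 1 mM DTT. Suc-LLVY-AMC (22.6 μM final) was then added for 4 h at RT in the dark. After stopping with 1 μM bortezomib, AMC fluorescence was read (ex 355/em 460 nm).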

[3] = Homo sapiens, A549 cells, read-out: PGLo A549

Row | IC50 (B cell; B-cell) [µM] | IC50 [2] [µM] | IC50 [1, 3] [nM] | IC50 (B cell) [µM] | IC50 ([1]; A549 cells, read-out: PGLo A549) [nM] | Structure (SMILES) | IC50 ([1]; Homo sapiens, A549, read-out: PGLo A549 [nM]) [nM]
1 | < 0.1 | < 0.1 | 100 to 500 | – | – | Cc1ccc2cc1CNC(=O)[C@H](CCc1ccccc1)NC(=O)[C@@H](NC1COC1)CC(=O)N1CCCC(CCO2)C1 (stereo partly drawn) [Compound 35, (9S,12S)-5^4-methyl-12-(oxetan-3-ylamino)-9-phenethyl-4-oxa-7,10-diaza-1(3,1)-piperidina-5(1,3)-benzenacyclotetradecaphane-8,11,14-trione] | –
2 | – | < 0.1 | – | < 0.1 | < 100 | Cc1ccc2cc1CNC(=O)C(CCc1ccccc1)NC(=O)C(NC(=O)CCc1ccccc1)CC(=O)N1CCCC(CCO2)C1 [Compound 30, N-((9S,12S)-5^4-methyl-8,11,14-trioxo-9-phenethyl-4-oxa-7,10-diaza-1(3,1)-piperidina-5(1,3)-benzenacyclotetradecaphane-12-yl)-3-phenylpropanamide] | –
3 | < 0.1 | < 0.1 | < 100 | – | – | CC(=O)N[C@H]1CC(=O)N2CCCC(CCOc3ccc(C)c(c3)CNC(=O)[C@H](CCc3ccccc3)NC1=O)C2 (stereo partly drawn) [Compound 33, N-((9S,12S)-5^4-methyl-8,11,14-trioxo-9-phenethyl-4-oxa-7,10-diaza-1(3,1)-piperidina-5(1,3)-benzenacyclotetradecaphane-12-yl)acetamide] | –
4 | < 0.1 | < 0.1 | < 100 | – | – | Cc1ccc2cc1CNC(=O)[C@H](CCc1ccccc1)NC(=O)[C@@H](NC(=O)Cc1ccccc1)CC(=O)N1CCCC(CCO2)C1 (stereo partly drawn) [Compound 29, N-((9S,12S)-5^4-methyl-8,11,14-trioxo-9-phenethyl-4-oxa-7,10-diaza-1(3,1)-piperidina-5(1,3)-benzenacyclotetradecaphane-12-yl)-2-phenylacetamide] | –
5 | – | < 0.1 | < 100 | – | – | Cc1ccc2cc1CNC(=O)C(c1cnn(C)c1)NC(=O)[C@@H](NC(=O)C1CCCc3ccccc31)CC(=O)N1CCCC(CCO2)C1 (stereo partly drawn) [Compound 360, N-((12S)-5^4-methyl-9-(1-methyl-1H-pyrazol-4-yl)-8,11,14-trioxo-4-oxa-7,10-diaza-1(3,1)-piperidina-5(1,3)-benzenacyclotetradecaphane-12-yl)-1,2,3,4-tetrahydronaphthalene-1-carboxamide] | –
6 | – | < 0.1 | 1000 to 5000 | – | – | Cc1ccc2cc1CNC(=O)[C@H](CCc1ccccc1)NC(=O)[C@@H](NC(=O)OCc1ccccc1)CCCC(=O)NCCCCO2 [Compound 322, benzyl ((12S,15S)-1^4-methyl-8,13, 16-trioxo-15-phenethyl-2-oxa-7,14,17-triaza-1(1,3)-benzenacyclooctadecaphane-12-yl)carbamate] | –
7 | – | < 0.1 | < 100 | – | – | CC(=O)c1ccc(CC(=O)N[C@H]2CC(=O)N3CCCC(CCOc4ccc(C)c(c4)CNC(=O)[C@H](CCc4ccccc4)NC2=O)C3)cc1 (stereo partly drawn) [Compound 341, 2-(4-acetylphenyl)-N-((9S,12S)-54-methyl-8,11,14-trioxo-9-phenethyl-4-oxa-7,10-diaza-1(3,1)-piperidina-5(1,3)-benzenacyclotetradecaphane-12-yl)acetamide] | –
8 | < 0.1 | < 0.1 | < 100 | – | – | Cc1ccc2cc1CNC(=O)[C@H](CCc1ccccc1)NC(=O)[C@@H](NC(=O)C(C)(C)C)CC(=O)N1CCCC(CCO2)C1 (stereo partly drawn) [Compound 27, N-((9S,12S)-5^4-methyl-8,11,14-trioxo-9-phenethyl-4-oxa-7,10-diaza-1(3,1)-piperidina-5(1,3)-benzenacyclotetradecaphane-12-yl)pivalamide] | –
9 | – | < 0.1 | < 100 | – | – | Cc1ccc2cc1CNC(=O)C(CCc1ccncc1)NC(=O)[C@@H](NC(=O)Cc1ccc(N)cc1F)CC(=O)N1CCCC(CCO2)C1 (stereo partly drawn) [Compound 344, 2-(4-amino-2-fluorophenyl)-N-((12S)-5^4-methyl-8,11,14-trioxo-9-(2-(pyridin-4-yl)ethyl)-4-oxa-7,10-diaza-1(3,1)-piperidina-5(1,3)-benzenacyclotetradecaphane-12-yl)acetamide] | –
10 | – | < 0.1 | < 100 | – | – | Cc1ccc2cc1CNC(=O)[C@H](CCc1ccccc1)NC(=O)[C@@H](NC(=O)OCc1ccccc1)CC(=O)N1CCCC(CCO2)C1 (stereo partly drawn) [Compound 7, benzyl ((9S,12S)-5^4-methyl-8,11,14-trioxo-9-phenethyl-4-oxa-7,10-diaza-1(3,1)-piperidina-5(1,3)-benzenacyclotetradecaphane-12-yl)carbamate] | –
11 | – | < 0.1 | 100 to 500 | – | – | Cc1ccc2cc1CNC(=O)[C@H](CCc1ccccc1)NC(=O)[C@@H](NC(=O)CC1=NN(c3ccccc3)C(=O)C1)CC(=O)N1CCCC(CCO2)C1 (stereo partly drawn) [Compound 334, N-((9S,12S)-5^4-methyl-8,11,14-trioxo-9-phenethyl-4-oxa-7,10-diaza-1(3,1)-piperidina-5(1,3)-benzenacyclotetradecaphane-12-yl)-2-(5-oxo-1-phenyl-4,5-dihydro-1H-pyrazol-3-yl)acetamide] | –
12 | – | < 0.1 | < 100 | – | – | Cc1ccc2cc1CNC(=O)C(CCc1ccc(C3(C)COC3)cc1)NC(=O)[C@@H](NC(=O)OCc1ccccc1)CC(=O)N1CCCC(CCO2)C1 (stereo partly drawn) [Compound 510, benzyl ((12S)-5^4-methyl-9-(4-(3-methyloxetan-3-yl)phenethyl)-8,11,14-trioxo-4-oxa-7,10-diaza-1(3,1)-piperidina-5(1,3)-benzenacyclotetradecaphane-12-yl)carbamate] | –
13 | – | < 0.1 | 100 to 500 | – | – | CC(=O)N[C@H]1CC(=O)N2CCCC(CCOc3ccc(C)c(c3)CNC(=O)C(Cc3ccccc3)NC1=O)C2 (stereo partly drawn) [Compound 558, N-((12S)-9-benzyl-5^4-methyl-8,11,14-trioxo-4-oxa-7,10-diaza-1(3,1)-piperidina-5(1,3)-benzenacyclotetradecaphane-12-yl)acetamide] | –
14 | – | < 0.1 | < 100 | – | – | Cc1ccc2cc1CNC(=O)[C@H](CCc1ccccc1)NC(=O)[C@@H](NC(=O)Cc1cc(Cl)c(N)c(Cl)c1)CC(=O)N1CCCC(CCO2)C1 (stereo partly drawn) [Compound 320, 2-(4-amino-3,5-dichlorophenyl)-N-((9S,12S)-5^4-methyl-8,11,14-trioxo-9-phenethyl-4-oxa-7,10-diaza-1(3,1)-piperidina-5(1,3)-benzenacyclotetradecaphane-12-yl)acetamide] | –
15 | – | < 0.1 | 100 to 500 | – | – | CC(=O)N[C@H]1CC(=O)N2CCCC(CCOc3ccc(C)c(c3)CNC(=O)C(c3cnn(-c4ccccc4)c3)NC1=O)C2 (stereo partly drawn) [Compound 559, N-((12S)-5^4-methyl-8,11,14-trioxo-9-(1-phenyl-1H-pyrazol-4-yl)-4-oxa-7,10-diaza-1(3,1)-piperidina-5(1,3)-benzenacyclotetradecaphane-12-yl)acetamide] | –
16 | – | < 0.1 | 100 to 500 | – | – | CC(=O)N[C@H]1CC(=O)N2CCCC(CCOc3ccc(C)c(c3)CNC(=O)C(c3ccc4ncccc4c3)NC1=O)C2 (stereo partly drawn) [Compound 554, N-((12S)-5^4-methyl-8,11,14-trioxo-9-(quinolin-6-yl)-4-oxa-7,10-diaza-1(3,1)-piperidina-5(1,3)-benzenacyclotetradecaphane-12-yl)acetamide] | –
17 | – | < 0.1 | 100 to 500 | – | – | CO[C@@H](C(=O)N[C@H]1CC(=O)N2CCCC(CCOc3ccc(C)c(c3)CNC(=O)C(c3cnn(C)c3)NC1=O)C2)c1ccccc1 (stereo partly drawn) [Compound 361, (2R)-2-methoxy-N-((12S)-5^4-methyl-9-(1-methyl-1H-pyrazol-4-yl)-8,11,14-trioxo-4-oxa-7,10-diaza-1(3,1)-piperidina-5(1,3)-benzenacyclotetradecaphane-12-yl)-2-phenylacetamide] | –

Row | Structure (SMILES) | IC50 (B cell; B-cell) [µM] | IC50 [2] [µM] | IC50 [1, 3] [nM] | IC50 (B cell) [µM] | IC50 ([1]; A549 cells, read-out: PGLo A549) [nM] | IC50 ([1]; Homo sapiens, A549, read-out: PGLo A549 [nM]) [nM]
18 | Cc1ccc2cc1CNC(=O)[C@H](CCc1ccccc1)NC(=O)[C@@H](Nc1ncccn1)CC(=O)N1CCCC(CCO2)C1 (stereo partly drawn) [Compound 34, (9S,12S)-5^4-methyl-9-phenethyl-12-(pyrimidin-2-ylamino)-4-oxa-7,10-diaza-1(3,1)] | < 0.1 | < 0.1 | – | – | – | < 100

Source: patent publication US20240415819A1, “MACROCYCLIC COMPOUNDS AS PROTEASOME SUBUNIT BETA TYPE-5 INHIBITORS” (Lead Discovery Center GmbH, priority 2021, published 2024)
